Series [1] has as its target T1, stearoyl-CoA desaturase (SCD1) (Mus musculus, UniProt P13516).
T1 construct: Male ICR outbread mice, on a high-carbohydrate, low fat diet; from tissue; host or cells: liver microsomes of male ICR mice on a high-carbohydrate, low fat diet
T1 sequence (P13516 1-355): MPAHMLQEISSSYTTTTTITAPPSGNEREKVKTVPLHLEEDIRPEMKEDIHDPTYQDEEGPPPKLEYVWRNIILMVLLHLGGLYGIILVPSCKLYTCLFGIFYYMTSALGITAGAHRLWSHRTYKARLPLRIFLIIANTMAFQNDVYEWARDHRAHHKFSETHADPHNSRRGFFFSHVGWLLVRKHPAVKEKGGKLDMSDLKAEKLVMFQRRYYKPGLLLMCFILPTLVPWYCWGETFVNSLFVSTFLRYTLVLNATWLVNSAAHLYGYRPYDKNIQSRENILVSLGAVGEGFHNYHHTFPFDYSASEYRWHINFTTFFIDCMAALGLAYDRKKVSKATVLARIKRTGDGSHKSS
The series is described as follows: SCD microsomal assay using mouse liver microsomes (release of 3H2O from [9,10-3H]stearoyl-CoA). The format is biochemical. The note with it: 15 min incubation, 25° C. From the text:
The identification of compounds of the invention as SCD inhibitors was readily accomplished using the SCD enzyme and microsomal assay procedure described in Shanklin J. and Summerville C., Proc. Natl. Acad. Sci. USA (1991), Vol. 88, pp. 2510-2514.
Measuring Stearoyl-CoA Desaturase Inhibition Activity of a Test Compound Using Mouse Liver Microsomes
The identification of compounds of the invention as SCD inhibitors was readily accomplished using the SCD microsomal assay procedure described in Shanklin J. and Summerville C., Proc. Natl. Acad. Sci. USA (1991), Vol. 88, pp. 2510-2514.
Male ICR outbread mice, on a high-carbohydrate, low fat diet, under light halothane (15% in mineral oil) anesthesia are sacrificed by exsanguination during periods of high enzyme activity. Livers are immediately rinsed with cold 0.9% NaCl solution, weighed and minced with scissors. All procedures are performed at 4′C unless specified otherwise. Livers are homogenized in a solution (1/3 w/v) containing 025 M sucrose, 62 mM potassium phosphate buffer (pH 7.0), 0.15 M KCL 15 mM N-acetyleysteine, 5 mM MgCl2, and 0.1 mM EDTA using 4 strokes of a Potter-Elvehjem tissue homogenizer. The homogenate is centrifuged at 10,400×g for 20 min to eliminate mitochondria and cellular debris. The supernatant is filtered through a 3-layer cheesecloth and centrifuged at 105,000×g for 60 min. The microsomal pellet is gently resuspended in the same homogenization solution with a small glass/teflon homogenizer and stored at −70° C. The absence of mitochondrial contamination is enzymatically assessed. The protein concentration is measured using bovine serum albumin as the standard.
Desaturase activity is measured as the release of ^3H2O from [9,10-^3H]stearoyl-CoA. Reactions per assay point conditions are as follows: 2 μL 1.5 mM stearoyl-CoA, 0.25 μL 1 mCi/mL ^3H-stearoyl CoA, 10 μL 20 mM NADH, 36.75 μL 0.1 M PK buffer (K2HPO4/NaH2PO4, pH 7.2). The test compound or control solution is added in a 1 μL volume. Reactions are started by adding 50 μL of microsomes (1.25 mg/mL). The plates are mixed and after 15 min incubation on a heating block (25° C.), the reactions are stopped by the addition of 10 μL 60% PCA. An aliquot of 100 μL is then transferred to a fitter plate pretreated with charcoal and the plate centrifuged at 4000 rpm for 1 minute. The flow through containing the ^3H2O released by the SCD1 desaturation reaction is added to scintillation fluid and the radioactivity measured in a Packard TopCount. The data is analysed to identify the IC50 for test compounds and reference compounds.
The activity was defined in terms of % SCD enzyme activity remaining at the desired concentration of the test compound or as the IC50 concentration. The IC50 (affinity) of the example compounds toward the stearoyl-CoA desaturase is comprised between around […] and 0.0001 μM or between around […] 0.0001 μM or between around 1 μM and 0.0001 μM.
In general terms: Liver microsomes are vesicles of endoplasmic reticulum, rich in cytochrome P450 enzymes.

Counter-ions that a name gives are not always drawn.

A word on the IC50: it is the point on the concentration scale where inhibition reaches its midpoint. On to `CNC(=O)c1ccnc(NC(=O)N2CCC3(CC2)CC(=O)c2ccc(F)cc2O3)c1` [Example 1, 7-fluoro-N-(4-(methylcarbamoyl)pyridin-2-yl)-4-oxospiro[chroman-2,4′-piperidine]-1′-carboxamide hydrochloride], for which the IC50 in series [1] is 524 nM.

In general, melting point refers to the temperature, or range, at which the solid turns liquid. `CNC(=O)c1ccnc(NC(=O)N2CCC3(CCc4ccc(F)cc4O3)CC2)c1` [Example 1.1, 7-fluoro-N-(4-(methylcarbamoyl)pyridin-2-yl)spiro[chroman-2,4′-piperidine]-1′-carboxamide] returned a melting point of 177 to 179 °C. This compound gave a half-maximal inhibitory concentration (IC50) in series [1] of 17 nM.

Compound `CNC(=O)c1ccnc(NC(=O)N2CCC3(CCc4cccc(Cl)c4O3)CC2)c1` [Example 1.2, 8-chloro-N-(4-(methylcarbamoyl)pyridin-2-yl)spiro[chroman-2,4′-piperidine]-1′-carboxamide hydrochloride] registered an IC50 in series [1] of 3 nM.

Take `CNC(=O)c1ccnc(NC(=O)N2CCC3(CC2)CC(=O)c2cccc(Cl)c2O3)c1.Cl` [Example 1.3, 8-chloro-N-(4-(methylcarbamoyl)pyridin-2-yl)-4-oxospiro[chroman-2,4′-piperidine]-1′-carboxamide hydrochloride]: the melting point is 215 °C (dec.). This compound also gave a half-inhibitory concentration (IC50) in series [1] of 56 nM.

Turning to `CNC(=O)c1ccnc(NC(=O)N2CCC3(CCc4cc(F)ccc4O3)CC2)c1` [Example 1.4, 6-fluoro-N-(4-(methylcarbamoyl)pyridin-2-yl)spiro[chroman-2,4′-piperidine]-1′-carboxamide], the melting point was in the range of 175 to 176 °C.

`CNC(=O)c1cccc(NC(=O)N2CCC3(CCc4ccc(F)cc4O3)CC2)n1` [Example 1.5, 7-fluoro-N-(6-(methylcarbamoyl)pyridin-2-yl)spiro[chroman-2,4′-piperidine]-it-carboxamide] registered a melting point of 126 to 128 °C.

As to `CNC(=O)c1cncc(NC(=O)N2CCC3(CCc4ccc(F)cc4O3)CC2)c1` [Example 1.6, 7-fluoro-N-(5-(methylcarbamoyl)pyridin-3-yl)spiro[chroman-2,4′-piperidine]-1′-carboxamide], the melting point lay in the range of 231 to 233 °C.

As for `CNC(=O)c1ccnc(NC(=O)N2CCC3(CC2)Cc2ccccc2C3)c1` [Example 1.7, N-(4-(methylcarbamoyl)pyridin-2-yl)-1,3-dihydrospiro[indene-2,4′-piperidine]-1′-carboxamide], the melting point lay within 229 to 231 °C.

The compound `Cn1cc(CNC(=O)c2ccnc(NC(=O)N3CCC4(CCc5cc(F)ccc5O4)CC3)c2)cn1` [Example 2.1, 6-fluoro-N-(4-{[(1-methyl-1H-pyrazol-4-yl)methyl]carbamoyl}pyridin-2-yl)-3,4-dihydro-1′H-spiro[chromene-2,4′-piperidine]-1′-carboxamide hydrochloride] returned a concentration for half-maximal inhibition (IC50) in series [1] of 40 nM.

As to `NC(=O)c1ccnc(NC(=O)N2CCC3(CCc4cc(F)ccc4O3)CC2)c1` [Example 3, N-(4-carbamoylpyridin-2-yl)-6-fluorospiro[chroman-2,4′-piperidine]-1′-carboxamide], the melting point was in the range of 265 to 267 °C.

For `Cc1nc(NC(=O)N2CCC3(CCc4ccc(F)cc4O3)CC2)sc1C(=O)NCc1ccccn1` [Example 4, 7-fluoro-N-(4-methyl-5-(pyridin-2-ylmethylcarbamoyl)thiazol-2-yl)spiro[chroman-2,4′-piperidine]-1′-carboxamide], the melting point fell in the range of 165 to 167 °C. In series [1], the 50% inhibitory concentration (IC50) worked out at 48 nM.

These data come from patent US20120010135A1, “SPIRO DERIVATIVES FOR THE MODULATION OF STEAROYL-COA DESATURASE” (XENON PHARMACEUTICALS INC., priority 2009, published 2012).
